Measurements: patent US7537906B2, “Apoptosis inducer and method of screening for a substance inhibiting acylated homoserine lactone” (priority 2003, dated 2009)

System: CaCo-2 cells
Test: Effects of kinase inhibitors on N-(3-oxododecanoyl)-L-homoserine lactone-dependent apoptosis, viability by Trypan blue staining
Format: cell-based, human
Conditions: then 30 μM N-(3-oxododecanoyl)-L-homoserine lactone, 12 hours
Protocol: 2×10^5 CaCo-2 cells were inoculated per 3.5 cm dish, cultured for 12 hours in the presence of 10% serum, washed twice with PBS (-), and then synchronously cultured in a serum-free medium for 24 hours. Pretreatment with various inhibitors (50 μM PD98059 and 20 μM SB203580) or DMSO was carried out for 30 minutes. Then 30 μM N-(3-oxododecanoyl)-L-homoserine lactone or DMSO was added, the cells were cultured for 12 hours, and then viability was measured by Trypan blue staining.

For `COc1cccc(-c2cc(=O)c3ccccc3o2)c1N` [PD98059], the “effect of pretreatment on viability” value (50 μM pretreatment 30 minutes) was “no effect”.

`C[S+]([O-])c1ccc(-c2nc(-c3ccncc3)c(-c3ccc(F)cc3)[nH]2)cc1` (centres unmarked) [SB203580] was tested, and the viability at 20 µM (Homo sapiens, 20 μM pretreatment 30 minutes) was 35%.
